The text below walks through data of patent US6653529B2, “Use of the maize X112 mutant ahas 2 gene and imidazolinone herbicides for selection of transgenic monocots, maize, rice and wheat plants resistant to the imidazolinone herbicides” (BASF Aktiengesellschaft, priority 2000, dated 2003).

In experiment [1] the test system is transgenic rice Line 26 (maize XI12 ahas2 gene). Nature of the experiment: Greenhouse spray test of rice with PURSUIT imazethapyr (pre- and post-emergence). It is filed as in vivo.
Experiment [2] relates to immature embryos of transgenic homozygous T2 plants (26-4). The experiment is described as follows: In vitro callus induction and growth from immature embryos on imazethapyr. It is filed as cell-based, rice. Here is the method: (§1) Immature embryos (12-14 days after fertilization) were dissected from transgenic homozygous T2 plants, identified as 26-4 in FIG. 1, or seed-grown Nortai plants and placed in N6 basal medium (Chiu et al., Sci. Sin 18:659-68, 1975) supplemented with 2 mg/l 2,4-D, 3% sucrose, 0.6% agarose (3SN6d2) amended with 0, 0.01, 0.033, 0.1, 0.3, 1.0, 3.3, 10, 25, or 50 μM imazethapyr (AC263,499). Five embryos were placed on one 10×60 mm Petri dish with two to three plates for each concentration as replications. Three weeks later, in vitro cellular response was monitored by measuring the fresh weight of callus derived from individual embryos.

Experiment [3] has as its system immature embryos of Nortai plants (control). Described as above. It is filed as cell-based, rice. The method, then:
as §1

Experiment [4] has as its system non-transformed Ciccio and Colosseo wheat plants. Nature of the experiment: Greenhouse spray test of wheat with RAPTOR imazamox. It is filed as in vivo. From the text:
(§2) Sow seed to 3×5-cell flats at about 10 seed per cell. Grow the plants for about two weeks. On the day of spraying, water plants well and let excess water drip out. Spray plants on a belt-sprayer with the imidazolinone herbicides at desired rates. […] Resume regular water schedule three days after spraying. Closely observe the plants for the next two to four weeks. Symptoms of herbicide injury will be visible two weeks after spraying and susceptible plants will die four to six weeks later. We usually measure plant height and score the plant morphology with a 0 to 10 rating with 0 for dead plants and 10 for healthy plants with no or minimum injury.
(§3) We also analyzed T2 progeny plants from one of the best lines of 0407-1-10. T2 seeds were planted at 10 seeds per pot and two pots per line were sprayed at 0, 10, 20, 30, 40 and 50 g/ha RAPTOR® imazamox. Most plants did show an increase in resistance over non-transformed control (FIG. 6B).

The subject of experiment [5] is transgenic wheat plants (0407-1 and progeny). Described as above. It is filed as in vivo.
Source text: as §2
Wheat transformation efficiency, calculated as percent of immature embryos produced at least one imidazolinone-resistant transgenic plant ranged from 0.4 to 3.1% (Table 7). A fertile regenerant 0407-1 generated from early transformation experiment with Agrobacterium (LBA4404) containing pAC1558 was evaluated for resistance to RAPTOR® imazamox post emergence. Untransformed Ciccio and Closseo plants were very sensitive to RAPTOR® imazamox and dead at very low rate.
as §3

The mark [6] stands for this setting: post-emergence, Rate 63 (g ai/ha).
The mark [7] stands for this setting: post-emergence, Rate 125 (g ai/ha).
Setting [8] is: post-emergence, Rate 250 (g ai/ha).

Each structure is given as a SMILES string.

Consider `CCc1cnc(C2=NC(C)(C(C)C)C(=O)N2)c(C(=O)O)c1` (stereo not shown) [PURSUIT ®, imazethapyr], for which the “No. panicles/plant Mean” value was found to be 25.3 in experiment [1] (setting [6]); 22.8 in experiment [1] (setting [7]); 21.7 in experiment [1] (setting [8]); 13.2 in experiment [1] (pre-emergence, 63 g/ha); 14.4 in experiment [1] (pre-emergence, 125 g/ha); 15.7 in experiment [1] (pre-emergence, 250 g/ha). Further, the “No. tillers/plant Mean” value in experiment [1] (setting [6]) was 27.1; in experiment [1] (setting [7]), 25.6; in experiment [1] (setting [8]), 25.4; in experiment [1] (pre-emergence, 63 g/ha), 14.3; in experiment [1] (pre-emergence, 125 g/ha), 15.3; in experiment [1] (pre-emergence, 250 g/ha), 13.3. The “Plant height Mean” value in experiment [1] (setting [6]) worked out at 110.1 cm; in experiment [1] (setting [7]) it was 108.1 cm; in experiment [1] (setting [8]), 110.3 cm; in experiment [1] (pre-emergence, 63 g/ha), 92.2 cm; in experiment [1] (pre-emergence, 125 g/ha) it was 89.7 cm; in experiment [1] (pre-emergence, 250 g/ha) it was 88.5 cm. Also, the “Yield % 0×” value in experiment [1] (setting [6]) amounted to 98 % 0×; in experiment [1] (setting [7]) it was 98 % 0×; in experiment [1] (setting [8]) it was 96 % 0×; in experiment [1] (pre-emergence, 63 g/ha), 101 % 0×; in experiment [1] (pre-emergence, 125 g/ha), 111 % 0×; in experiment [1] (pre-emergence, 250 g/ha), 109 % 0×. Also, the “Yield Mean” value was determined as 206.7 g/5 plants in experiment [1] (setting [6]); 206.0 g/5 plants in experiment [1] (setting [7]); 202.7 g/5 plants in experiment [1] (setting [8]); 155.3 g/5 plants in experiment [1] (pre-emergence, 63 g/ha); 170.0 g/5 plants in experiment [1] (pre-emergence, 125 g/ha); 167.0 g/5 plants in experiment [1] (pre-emergence, 250 g/ha). Besides, the “concentration up to which callus induction and growth were normal” value in experiment [2] (transgenic embryos) is recorded as “up to 1 μM”. In experiment [2] (transgenic embryos), the “concentration with no callus induction” value is 10 µM. Moreover, the reduction in growth result in experiment [2] (transgenic embryos, 3.3 μM) was “about 50%”. In experiment [2] (transgenic vs untransformed, immature embryos (also suspension cells / cell lines)), the “increase in resistance to imazethapyr in vitro” value was determined as 100 fold. For the same compound, the “growth (reduced to) on imazethapyr” value in experiment [3] (0.03 μM) is “less than 50%”. For the same compound, in experiment [3] (3 weeks), the “concentration at which callus induction was totally inhibited” value came out at 0.1 µM.

In the case of `COCc1cnc(C2=NC(C)(C(C)C)C(=O)N2)c(C(=O)O)c1` (stereo not shown) [RAPTOR ®, imazamox], the “plant heights of Ciccio and Colosseo reduced, less than those of transformed plants” value in experiment [4] (10 g/ha) is on record as 50%. Moreover, in experiment [4] (50 g/ha), the “fate of non-transformed Ciccio” value is listed as “caused death”. In addition, the “reduction of plant height of resistant transgenic plants” value in experiment [5] (20 g/ha, T2 progeny of 0407-1-10) is “about 25%”. In experiment [5] (50 g/ha), the “T1 transgenic plants dead, out of 288” value was 218 and the “T1 transgenic plants that survived, out of 288” value came out at 70. In experiment [5] (50 g/ha, T1), the “stunting of resistant plants” value is on record as 33-70%. Besides, in experiment [5] (in vivo), the “increase of tolerance in transgenic wheat plants” value is on record as 5 ×.
